Structures are written as SMILES. Bounds are passed on as bounds.

`Cc1cccc(NC(=O)NCC(=O)N(CC(=O)N2CCC(C)(C)CC2)c2ccccc2)c1` gave a melting point of 205 °C.
Turning to `C=CC(=O)[C@@H]1CCCC[C@H]1C(=O)O` (relative stereo), the melting point was 101 to 102 °C.
In turn, `O=C1c2cc(C(=O)N3CCCCC3)ccc2-c2ccc(C(=O)N3CCCCC3)cc21` came in with a melting point of 94.5 to 95.5 °C.
`COc1cc(C)c2ccc(Br)cc2n1` gave a melting point of 58 to 60 °C.
Consider `O=C(Nc1ccc2ccc(Cl)nc2n1)Oc1ccccc1`, for which the melting point worked out at 208 °C.
The same measure for `COc1ccc(-c2nc(Sc3ccccc3)n(C)c2-c2ccc(OC)cc2)cc1`: 115 to 117 °C; for `COC(OC)(c1ccncc1)C(NC(=O)NCCCc1ccccc1)c1ccc(F)cc1` (stereo not drawn): 162 to 166 °C; for `COc1ccc2c(c1F)OCc1c(C(F)(F)F)nn(-c3ccc(S(N)(=O)=O)cc3)c1-2`: 133 to 138 °C.
The same measure for `COc1ccc(-c2cnc(N)c(SC)n2)cc1`: 139 to 140 °C; for `CC(=NO)c1ccc(OCc2ccccc2)c(CCCc2ccc(C(=O)NCCO)cc2)c1`: 131 to 132 °C; for `O=c1ccc(-c2c(-c3ccccc3)nn3ccccc23)nn1Cc1nccs1`: 130 to 132 °C.
For the molecule `CC(C(=O)O)c1cccc2cn[nH]c12` (stereo not drawn), the melting point was 171 to 176 °C.
In turn, `CCCCN(CCCC)C(=O)c1c(C)n(CCc2ccccc2)c2cc(C(=O)CC)c(O)c(CN3CCCCC3)c12` returned a melting point of 111 to 112 °C.
The same measure for `O=C1Nc2ccccc2Sc2cc(C(F)(F)F)ccc21`: 216 to 217 °C.
To `COc1ccc(-c2ccncc2)cc1-c1ccc2nonc2c1` belongs 187 to 192 °C.
`O=C1CCC2(CCC(=O)c3cc([N+](=O)[O-])ccc32)C(=O)N1` (stereo not drawn) gave a melting point of 273 to 275 °C.
In the case of `COc1ccc2c(c1)CCC(C(=O)Cc1ccccc1)C2C#N` (stereo not drawn), the melting point was in the range of 139 to 142 °C.
Molecule `CCCCc1c(Cl)nc(N)nc1Cl` gave a melting point of 169 to 170 °C.
The molecule `CCCN(CCC)c1c([N+](=O)[O-])cc(C)c(C)c1[N+](=O)[O-]` showed a melting point of 42 to 43.5 °C.
In turn, `CCCc1cn(Cc2ccc(C(=O)OC)cc2OC)c2cc(C=C(C)C(=O)O)ccc12` registered a melting point of 167 to 169 °C.
The same measure for `CC1(C)CN(CCN2CCN(c3cccc(Cl)c3)C2=O)C1`: 84 to 85 °C; for `CCCCC(CC)COc1ccc(-c2nc(-c3ccc(OCC(CC)CCCC)cc3O)nc(-c3cccn3Cc3ccccc3)n2)c(O)c1` (stereo not drawn): 66 to 68 °C.
On to `O=C(CCCl)Nc1ccc2c(c1)C(=O)c1cc(NC(=O)CCCl)ccc1C2=O`, for which the melting point came out at 281 °C.
Regarding `CCCCCCNc1ncnc2c1ncn2C1CC(F)C(CO)O1` (stereo not drawn), the melting point is 83 °C.
For the molecule `O[C@@H]1CCc2cc(F)c(F)cc2C1`, the melting point fell in the range of 88 to 92 °C.
The same measure for `O=C(Cc1ccccc1)Nc1ccc(NC(=O)OCc2ccccc2)c(O)c1`: 252 °C; for `Nc1ccccc1C(=O)OCN1C(=O)c2ccccc2C1=O`: 160 to 162 °C.
The same measure for `O=C(OCc1ccccc1)N1CCC2(CC1)CC(=O)N(OC[N+](=O)[O-])C2=O`: 137 to 139 °C; for `CC1(C)CC(=O)c2c(nc(Cc3ccc(N)cc3)c3[nH]c4ccccc4c23)C1`: 123 to 124 °C; for `O=C(Nc1ccc(O)cc1)c1ccc(O)cc1`: 180 to 185 °C.
The molecule `CNC(=O)C=C(c1ccc(C#N)cc1)n1ccnc1` returned a melting point of 172 to 180 °C.
In turn, `Cc1ccc(NC(=O)N(C)Cc2cccc3c2C(=O)N(C2CCC(=O)NC2=O)C3=O)cc1` (stereo not drawn) displayed a melting point above 260 °C.
To `COC(=O)c1nc(-c2ccccc2)n(-c2ccc(Cl)cc2)n1` belongs 136 to 137 °C.
Turning to `Cc1cc(C)c2cc(-c3ccccc3)c(=O)n(CCN(C)C)c2n1`, the melting point lay in the range of 135 to 137 °C.
For `O=C(Nc1ccc(Cl)cn1)c1cc(Cl)ccc1NCC1CCN(C2CCSCC2)CC1`, the melting point lay in the range of 200 to 203 °C.
As to `COc1c(C#Cc2ccc(NS(C)(=O)=O)cc2C)cc(N2CCC(=O)NC2=O)cc1C(C)(C)C`, the melting point was above 280 °C.
The same measure for `CCCCCCN1C(=O)NC(=O)C1O` (stereo not drawn): 96 to 97 °C; for `CCCCNC(=O)Nc1ccc(N2CCCC2)cc1C(=O)NCC1CCN(C(c2ccccc2)c2ccccc2)CC1`: 200 to 202 °C.
The same measure for `Nc1ncc(Cl)c(CCl)c1Cl`: 124 to 126 °C.
The molecule `CC12CCC(C(=O)O)=CC1=CCC1C2CCC2(C)C(C(=O)N(C(=O)NC3CCCCC3)C3CCCCC3)CCC12` (stereo not drawn) displayed a melting point of 253 to 255 °C.
The same measure for `O=[N+]([O-])N=c1ccccn1Cc1ccc(Cl)nc1`: 209 to 212 °C; for `O=C1NCN(c2ccccc2)C12CCN(C1CCC(c3ccc(F)cc3)(c3ccc(F)cc3)CC1)CC2`: 249 to 253 °C.
`Cc1oc(-c2ccccc2)nc1COc1ccc(CCC2SC(=O)NC2=O)cc1` (stereo not drawn) displayed a melting point of 146 to 147 °C.
The same measure for `O=C(O)Cn1c2ccccc2c2sccc(=O)c21`: 275 to 278 °C; for `Cc1[nH]cnc1CSCCNc1[nH]cc(-c2ccccc2)c1[N+](=O)[O-]`: 182 to 184 °C.
The same measure for `CCOC(=O)c1cc2cc(OCCOC)cc(NS(=O)(=O)c3cccs3)c2[nH]1`: 106 to 107 °C; for `CC(C)(C)COc1ccc(N)cc1Br`: 45 °C; for `Brc1ccccc1C=Cc1ccco1`: 108 to 110 °C.
To `CCNCC1CCN(c2c(F)c(F)c3c(=O)c(C(=O)O)cn(C4CC4)c3c2F)C1` (stereo not drawn) belongs 247 to 248 °C.
Molecule `CCCCCCCCCCCNC(=O)N(C)CC(O)C(O)C(O)C(O)CO` (stereo not drawn) gave a melting point of 109 °C.
In turn, `Cc1nc2c(c(=O)[nH]1)-c1ccc(Cl)cc1C(c1ccccc1)=[N+]([O-])C2` yielded a melting point of 219 to 221 °C.
The same measure for `CNc1nc(-c2cccc(NC(=O)c3cccc(O)c3)c2)c2cc(OC)c(OC)cc2n1`: 265 to 267 °C.
`O=C(c1ccc(Br)cc1)c1cc2c(ccc3ccccc32)oc1=O` gave a melting point of 213 to 215 °C.
The same measure for `CC(CC=Cc1ccccc1)C1CC=C2C3=C(CCC21C)C1(C)CCC(O)C(C)(C)C1CC3` (stereo not drawn): 127 °C; for `Cn1c(C(F)(F)F)cc(=O)n(-c2cc(OCc3cccs3)c(Cl)cc2F)c1=O`: 156 to 158 °C; for `COC(=O)c1cc2cc(OC)ccc2cc1/N=C/N(C)C`: 160 to 162 °C.
To `Cc1ccc(Cc2cnc(NCCCNc3ccc(Cl)cn3)[nH]c2=O)cn1` belongs 173 to 175 °C.
To `CC(Cn1cc(Cl)c2ccccc21)N(O)C(N)=O` (stereo not drawn) belongs 168 to 171 °C; to `O=C(CN1C(=O)c2ccccc2C1=O)NNC(=O)c1ncn2c1[C@@H]1CCCN1C(=O)c1sccc1-2`, above 260 °C.
As to `O=C(NC1C(=O)N(CC2C3CC4CC(C3)CC2C4)c2ccccc2N(c2ccccc2)C1=O)Oc1ccccc1` (stereo not drawn), the melting point fell in the range of 167 to 168 °C.
The same measure for `COC(=O)CCN(CC1CC2c3cccc4[nH]cc(c34)CC2N(C)C1)C(=O)NC(C)C` (stereo not drawn): 112 to 115 °C; for `Cc1c(-c2nc(-c3c(F)cccc3Cl)nn2C)csc1Br`: 133 to 134 °C.
To `CCCN(C)C1CCc2c(cccc2NC(C)=O)C1` (stereo not drawn) belongs 78 °C.
The same measure for `OCc1c(-c2ccccc2)c(-c2ccccc2)nn1Cc1ccccc1`: 138 °C; for `O=c1n(F)nc(SC(Cl)Cl)n1-c1ccccc1`: 128 to 130 °C; for `C=CCOc1cc2c(c(Cl)c1Cl)C(=O)C(C)(c1ccccc1)C2` (stereo not drawn): 105 °C.
As to `Cc1cccc(-c2ccccc2)c1C(=O)c1sc(Nc2ccc(N3CCOCC3)cc2)nc1N`, the melting point fell in the range of 125 to 135 °C.
In turn, `Cc1ccc(-c2c(CNC(=O)OC(C)(C)C)[nH]c(=O)c3ccc(C#N)cc23)cc1` gave a melting point of 156 to 157 °C.
Molecule `C[C@@H](c1ccc(/C=C/c2ccnn2C)cc1)[C@](O)(Cn1cncn1)c1ccc(F)cc1F` displayed a melting point of 81 to 83 °C.
For `COc1cc([N+](=O)[O-])c(C(=O)Cc2ccccc2)cc1O`, the melting point was in the range of 142 to 143 °C.
Molecule `c1ccc(-c2nnc3cc(C45CCC(CC4)C5)c(OCc4ccccn4)nn23)cc1` yielded a melting point of 166 to 168 °C.
As to `CNc1c(C2=CC(C)(C)Oc3ccc(C#N)cc32)c(=O)c1=O`, the melting point is 193 to 194 °C.
To `CCOC(=O)CN1CC(=O)N(C)c2ccc([N+](=O)[O-])cc2C1=O` belongs 129 to 130 °C; to `COc1cc(OC(=O)C(C)C)c2c(=O)c(OC)c(-c3ccc(OC(=O)C(C)(C)C)c(OC)c3)oc2c1`, 151 to 152 °C; to `O=S(=O)(Nc1cc(Cl)cc(Cl)c1)c1cc(Br)ccc1O`, 158 to 159 °C.
The same measure for `COC(=O)c1cccc(-c2nc(COc3ccc(CO)cc3)c(C)o2)c1`: 105 to 106 °C; for `COc1nc(Cl)ccc1C(=O)O`: 210 to 215 °C; for `Nc1ccc2c(c1)SN(CCCCN1CCN(c3ncccn3)CC1)C2`: 150 to 151 °C.
`O=C1c2ccccc2OCC1SC(=O)C(F)(F)F` (stereo not drawn) showed a melting point of 75 to 79 °C.
The molecule `CCc1nc(-c2ccco2)c2ncn(Cc3ccc(OC)cc3)c2n1` had a melting point of 119 to 120 °C.
To `CC(=O)Nc1ccc(S(=O)(=O)N(Cc2cc(C(C)(C)C)c(O)c(C(C)(C)C)c2)c2cccnc2)cc1` belongs 167 to 169 °C; to `CCOC(=O)c1cnoc1-c1ccc(-c2ccccc2)cc1`, 73 to 75 °C; to `Fc1cc(Cl)ccc1C1(Br)NNC2=C1CCCC2` (stereo not drawn), 95 to 98 °C.
The same measure for `CCNc1cccc(NC(=O)COCC)c1C#N`: 84 to 87 °C; for `CC(Oc1ccc(F)cc1)c1ccnn2cnnc12` (stereo not drawn): 103 to 104 °C.
`COc1ccccc1OCCCc1nc(-c2ccc(Cl)cc2)co1` returned a melting point of 94 to 95 °C.
The same measure for `CN1C(=O)[C@H](NC(=O)Nc2ccc3c(c2)CCC3)N=C(c2ccccc2)c2ccccc21`: 156 to 158 °C.
In turn, `Nc1nc2c(Cl)cc(F)c(-c3ncc(C(F)(F)F)cc3Cl)c2s1` gave a melting point of 230 to 235 °C.

Source of the values: a melting point compilation (Tetko et al.; mined from patent text by program, amines drawn as free bases though some values may be those of a salt).
